Reference: patent US10988766B2, “Compositions and methods used in diagnosing and treating colorectal cancer” (Oregon Health & Science University, priority 2017, dated 2021)

What was measured:
Assay type in all cases: cell-based, human
[1] = test system: HCT-116 cells reverse transfected with anti-miR-451a; assay: Chemosensitivity model: cell proliferation (CellTiter-Glo) with SHP2 and RAF inhibitors; settings: 3.5 uM SHP2-inhibitor, 20 uM RAF-inhibitor, alone or combined; treated 24 hours post transfection
Protocol: HCT-116 cells (American Type Culture Collection) were cultured in McCoy's media supplemented with 10% fetal bovine serum (FBS) and antibiotics. Cells were tested and found negative for mycoplasma contamination before use in the assays described. Cells were reverse transfected with miR-451a-5p mimics or inhibitors with their respective controls (purchased from Life Technologies), using Lipofectamine® RNAiMAX (Invitrogen) per manufacturer's instructions. We report highly efficient transfection (>90%) of mimics and inhibitors in cell culture, as measured by fluorescent miR control. Cells were irradiated in a Shepherd^137 cesium irradiator at a rate of 1.34 cGy min. HCT-116 cells were initially transfected in a six-well plate, then transferred to a 96-well plate 16 hours post-transfection (2000 cells/well). In the chemosensitivity model, HCT-116 cells were treated with SHP2 inhibitor SHP099, 6-([…]-4-methyl-1-piperidinyl)-3-(2,3-dichlorophenyl)-2-pyrazinamine (Cayman Chemical, cat#20000) (3.5 μM), and RAF inhibitor (selective paradox breaker; SelleckChem, PLX7904, N′-[3-[[5-(2-cyclopropyl-5-pyrimidinyl)-1H-pyrrolo[2,3-b]pyridin-3-yl]carbonyl]-2,4-difluorophenyl]-N-ethyl-N-methyl-sulfamide, cat#57964) (20 μM) at 24 hours post transfection. Cell proliferation was analyzed at 48 hours post irradiation, using CellTiter-Glo®, per the manufacturer's instructions.

HCT-116 cells [2] = assay: Proliferation in 2D culture (Cell Titer-Glo) after transfection and radiation
Description: HCT-116 cells were reverse transfected with miR-451a-5p mimics, inhibitors and their respective controls were purchased from Life Technologies using Lipofectamine RNAiMAX (Invitrogen) according to manufacturer's instructions.
Cells or mice were irradiated on a Shepherd^137 cesium irradiator at a rate of […] 1.34 cGy min. In tumour-targeted radiation experiments, mice were restrained in a lead shield (Brain Tree Scientific) to minimize exposure to the non-tumour areas.
(§1) HCT-116 cells were transfected in a 6 well plate with miR-451a-5p mimic or inhibitor, and the corresponding controls from Life Technologies as previously described. Cells were transferred to a 96 well plate 16 hours post-transfection (1000 cells/well). At 24 hours post-transfection the HCT-116 cells were irradiated with 0, 2, or 5 Gy. Cell Titer-Glo and Caspase 3/7 Glo were analyzed at 48 hours and 96 hours post-irradiation, according to manufacturer's instructions.

HCT-116 cells [3] = assay: Tumorsphere (3D culture) proliferation assay after transfection and radiation; settings: miR-451a mimic vs control mimic, 48 hours after radiation
Protocol: (§2) FIG. 2B is a graph showing results where HCT116 were transfected with a miR-451a mimic or a control mimic. Proliferation was analyzed 48 hours after radiation in 3D cultures with the indicated doses. Bars depict mean±s.e.m. of triplicate wells. ** indicates P<0.01 on a two-tailed Student's T-test.
as §2, with “3B” for “2B”, “inhibitor (anti-miR-451a)” for “mimic”, “anti-miR.” for “mimic.”, “culture” for “cultures”
as §1

HCT-116 cells [4] = assay: Colony formation assay (surviving fraction); settings: miR-451a mimic vs control mimic, 0, 2 or 5 Gy, colonies counted 12-14 days after plating
Protocol: Cells were transfected with miR-451a-5p mimic or control mimic for 16 hours. Then cells were plated (100 or 200 cells for 0Gy, 200 or 400 cells/well for 2GY and 400 or 800 cells per well for 5Gy) in triplicate in a 6-well plate. Cells were irradiated 4 hours after plating, 0Gy, 2Gy or 5Gy. Two weeks after plating, cells were fixed and stained with crystal violet and colonies were counted. Surviving fraction was calculated based on the colony numbers normalized to the plating efficiency.

[5] = test system: CAB39, EMSY, EREG, and MEX3C mRNAs; assay: miR-TRAP / RISC Trap assay; settings: HCT116 co-transfected with mutant RISC complex plasmid and miR-451a mimic or control mimic
Description: Fold enrichment over pre-IP mRNAs is depicted. Results are representative of two independent experiments.
HCT116 cells were co-transfected with a plasmid coding for a flag-tagged dominant negative […] mutant (Clontech kit #632016) along with a control mimic or miR-451a-5p mimic according to manufacturer instructions. Twenty-four hours later the RNA protein complexes were crosslinked and the RISC complex was immunoprecipitated using an anti-FLAG antibody and RNA was isolated for quantitative real-time PCR of target genes. The fold enrichment was calculated using pre and post IP controls as well as normalization to the control mimic pull-downs.

[6] = test system: CAB39, EMSY, EREG, and MEX3C mRNA in HCT-116 cells; assay: qRT-PCR of the miR-451 targets after transfection; settings: 24 h after transfection
Protocol: FIG. 4C is a plot of the results of qRT-PCR of the miR-451 targets in HCT-116 cells at 24 h after transfection.
This list was narrowed by filtering genes with a known role in human colorectal cancer and/or cellular response to ionizing radiation. […] A miR-Trap assay was used to pull down mRNAs enriched at the RNA induced silencing complex in cells transfected with miR-451a.

HCT116 = assay: Proliferation after radiation and 5-FU treatment; settings: miR-451a mimic vs control mimic, radiation and 5-FU (5 μM), 48 and 96 hours
Protocol: FIG. 6A is a graph of HCT116 transfected with a miR-451a mimic or a control mimic. Proliferation was analyzed 48 hours after radiation and 5-FU (5 μM) treatment. Mean of triplicate wells is plotted. * indicates P<0.01 on a two-tailed Student's T-test.
FIG. 6B is a graph of HCT116 transfected with a miR-451a mimic or a control mimic. Proliferation was analyzed 96 hours after radiation and 5-FU (5 μM) treatment. Mean of triplicate wells is plotted. * indicates P<0.01 on a two-tailed Student's T-test
as §1

Compound | cell proliferation [1] | proliferation in a 2D culture (HCT-116 cells [2]; miR-451a mimic vs control mimic, 48 hours after radiation) | effect in combination with radiation (HCT-116 cells [2]; on the phenotypes (proliferation, tumorsphere, colony formation), especially at the 5 Gy dose) | proliferation in a tumorsphere assay (HCT-116 cells [3]) | surviving fraction colony formation (HCT-116 cells [4]) | enrichment of target mRNAs at the RNA induced silencing complex [5] | target gene expression at the mRNA level [6] | responses to 5-FU (proliferation) (HCT116)
CCN(C)S(=O)(=O)Nc1ccc(F)c(C(=O)c2c[nH]c3ncc(-c4cnc(C5CC5)nc4)cc23)c1F [RAF-inhibitor, N′-[3-[[5-(2-cyclopropyl-5-pyrimidinyl)-1H-pyrrolo[2,3-b]pyridin-3-yl]carbonyl]-2,4-difluorophenyl]-N-ethyl-N-methyl-sulfamide] | significant decrease in cell proliferation | – | – | – | – | – | – | –
CC1(N)CCN(c2cnc(-c3cccc(Cl)c3Cl)c(N)n2)CC1 [SHP2-inhibitor, 6-(4-diamino-4-methyl-1-piperidinyl)-3-(2,3-dichlorophenyl)-2-pyrazinamine] | significant decrease in cell proliferation | – | – | – | – | – | – | –
miR-451a: miR-451a-5p mimic purchased from Life Technologies, transfected into HCT-116 cells; tumor suppressor miRNA (AAACCGUUACCAUUACUGAGUU; listed as RNA, chemistry not given here; listed as Homo sapiens) | – | decreased proliferation | slight additive effect with radiation | decreased proliferation | decreased proliferation | enriched at the RISC | significant downregulation of all four target genes | enhanced the responses to 5-FU
